From patent US20260232767A1, “INTERLEUKIN-23 RECEPTOR ANTAGONIST PEPTIDES FOR USE IN THE TREATMENT OF PSORIASIS” (Janssen Pharmaceutica NV, priority 2023, published 2026)

Test system: subjects with moderate-to-severe plaque psoriasis
Assay: Hematology and chemistry laboratory values by CTCAE grade
Assay type: in vivo, human
Details: through Week 56
Description: The proportion of participants who discontinued study intervention due to one or more AEs was low (n=4). All events were singular in nature with no apparent dose-dependent increase (Table 48 and Table 52). The number of participants with abnormal hematology and chemistry laboratory values with CTCAE toxicity grade≥3 were low through the end of the study (Table 43 through Table 46). There was no apparent dose-dependent increase in laboratory abnormality occurrences.

CC(=O)NCCCC[C@@H]1NC(=O)[C@H](Cc2c[nH]c3c(C)cccc23)NC(=O)[C@H]([C@@H](C)O)NC(=O)[C@H](CC(N)=O)NC(=O)[C@@H](NC(C)=O)C(C)(C)SSC(C)(C)[C@@H](C(=O)N[C@@H](Cc2ccc(OCCN)cc2)C(=O)N[C@@H](Cc2ccc3ccccc3c2)C(=O)NC2(C(=O)N[C@@H](CCC(=O)O)C(=O)N[C@@H](CC(N)=O)C(=O)N[C@@H](Cc3cccnc3)C(=O)N(C)CC(N)=O)CCOCC2)NC1=O [IL-23 receptor antagonist peptide, Ac-[Pen]*-N-T-[W(7-Me)]-[Lys(Ac)]-[Pen]*-Phe[4-(2-aminoethoxy)]-[2-Nal]-[THP]-E-N-[3-Pal]-Sarc-NH2 (*[Pen]-[Pen]* formdisulfidebond)]
7: Total Bilirubin (increased): Subjects with Grade 1 (100 mg QD) | Total Bilirubin (increased): Subjects with postbaseline maximum toxicity grade >0 (100 mg QD)
9: Aspartate Aminotransferase (increased): Subjects with Grade 1 (100 mg QD)
12: Alanine Aminotransferase (increased): Subjects with Grade 1 (100 mg QD)
5: Potassium (increased): Subjects with Grade 1 (100 mg BID) | Potassium (increased): Subjects with postbaseline maximum toxicity grade >0 (100 mg BID) | Gamma Glutamyl Transferase (increased): Subjects with Grade 1 (100 mg QD) | Gamma Glutamyl Transferase (increased): Subjects with postbaseline maximum toxicity grade >0 (100 mg QD) | Triglycerides (increased): Subjects with postbaseline maximum toxicity grade >0 (100 mg QD) | WBC (×10^9/L) (decreased): subjects with postbaseline maximum toxicity grade >0 (100 mg QD)
10: Aspartate Aminotransferase (increased): Subjects with postbaseline maximum toxicity grade >0 (100 mg QD)
0: Creatinine (increased): Subjects with Grade 3 (100 mg BID) | Creatinine (increased): Subjects with Grade 4 (100 mg BID) | Gamma Glutamyl Transferase (increased): Subjects with Grade 2 (100 mg BID) | Gamma Glutamyl Transferase (increased): Subjects with Grade 3 (100 mg BID) | Gamma Glutamyl Transferase (increased): Subjects with Grade 4 (100 mg BID) | Glucose (decreased): Subjects with Grade 2 (100 mg BID) | Glucose (decreased): Subjects with Grade 3 (100 mg BID) | Glucose (decreased): Subjects with Grade 4 (100 mg BID) | Hemoglobin (g/L) (decreased): subjects with Grade 2 (100 mg BID) | Hemoglobin (g/L) (decreased): subjects with Grade 3 (100 mg BID) | Hemoglobin (g/L) (decreased): subjects with Grade 4 (100 mg BID) | Hemoglobin (g/L) (increased): subjects with Grade 2 (100 mg BID) | Hemoglobin (g/L) (increased): subjects with Grade 3 (100 mg BID) | Hemoglobin (g/L) (increased): subjects with Grade 4 (100 mg BID) | Lymphocytes (×10^9/L) (decreased): subjects with Grade 2 (100 mg BID) | Lymphocytes (×10^9/L) (decreased): subjects with Grade 3 (100 mg BID) | Lymphocytes (×10^9/L) (decreased): subjects with Grade 4 (100 mg BID) | Lymphocytes (×10^9/L) (increased): subjects with Grade 1 (100 mg BID) | Lymphocytes (×10^9/L) (increased): subjects with Grade 2 (100 mg BID) | Lymphocytes (×10^9/L) (increased): subjects with Grade 3 (100 mg BID) | Lymphocytes (×10^9/L) (increased): subjects with Grade 4 (100 mg BID) | Lymphocytes (×10^9/L) (increased): subjects with postbaseline maximum toxicity grade >0 (100 mg BID) | Magnesium (decreased): Subjects with Grade 1 (100 mg BID) | Magnesium (decreased): Subjects with Grade 2 (100 mg BID) | Magnesium (decreased): Subjects with Grade 3 (100 mg BID) | Magnesium (decreased): Subjects with Grade 4 (100 mg BID) | Magnesium (decreased): Subjects with postbaseline maximum toxicity grade >0 (100 mg BID) | Magnesium (increased): Subjects with Grade 2 (100 mg BID) | Magnesium (increased): Subjects with Grade 3 (100 mg BID) | Magnesium (increased): Subjects with Grade 4 (100 mg BID) | Neutrophils (×10^9/L) (decreased): subjects with Grade 3 (100 mg BID) | Neutrophils (×10^9/L) (decreased): subjects with Grade 4 (100 mg BID) | Platelets (×10^9/L) (decreased): subjects with Grade 2 (100 mg BID) | Platelets (×10^9/L) (decreased): subjects with Grade 3 (100 mg BID) | Platelets (×10^9/L) (decreased): subjects with Grade 4 (100 mg BID) | Potassium (decreased): Subjects with Grade 1 (100 mg BID) | Potassium (decreased): Subjects with Grade 2 (100 mg BID) | Potassium (decreased): Subjects with Grade 3 (100 mg BID) | Potassium (decreased): Subjects with Grade 4 (100 mg BID) | Potassium (decreased): Subjects with postbaseline maximum toxicity grade >0 (100 mg BID) | Potassium (increased): Subjects with Grade 2 (100 mg BID) | Potassium (increased): Subjects with Grade 3 (100 mg BID) | Potassium (increased): Subjects with Grade 4 (100 mg BID) | Sodium (decreased): Subjects with Grade 1 (100 mg BID) | Sodium (decreased): Subjects with Grade 2 (100 mg BID) | Sodium (decreased): Subjects with Grade 3 (100 mg BID) | Sodium (decreased): Subjects with Grade 4 (100 mg BID) | Sodium (decreased): Subjects with postbaseline maximum toxicity grade >0 (100 mg BID) | Sodium (increased): Subjects with Grade 2 (100 mg BID) | Sodium (increased): Subjects with Grade 3 (100 mg BID) | Sodium (increased): Subjects with Grade 4 (100 mg BID) | Total Bilirubin (increased): Subjects with Grade 2 (100 mg BID) | Total Bilirubin (increased): Subjects with Grade 3 (100 mg BID) | Total Bilirubin (increased): Subjects with Grade 4 (100 mg BID) | Triglycerides (increased): Subjects with Grade 4 (100 mg BID) | WBC (×10^9/L) (decreased): subjects with Grade 2 (100 mg BID) | WBC (×10^9/L) (decreased): subjects with Grade 3 (100 mg BID) | WBC (×10^9/L) (decreased): subjects with Grade 4 (100 mg BID) | WBC (×10^9/L) (increased): subjects with Grade 1 (100 mg BID) | WBC (×10^9/L) (increased): subjects with Grade 2 (100 mg BID) | WBC (×10^9/L) (increased): subjects with Grade 3 (100 mg BID) | WBC (×10^9/L) (increased): subjects with Grade 4 (100 mg BID) | WBC (×10^9/L) (increased): subjects with postbaseline maximum toxicity grade >0 (100 mg BID) | Alanine Aminotransferase (increased): Subjects with Grade 3 (100 mg QD) | Alanine Aminotransferase (increased): Subjects with Grade 4 (100 mg QD) | Albumin (decreased): Subjects with Grade 1 (100 mg QD) | Albumin (decreased): Subjects with Grade 2 (100 mg QD) | Albumin (decreased): Subjects with Grade 3 (100 mg QD) | Albumin (decreased): Subjects with Grade 4 (100 mg QD) | Albumin (decreased): Subjects with postbaseline maximum toxicity grade >0 (100 mg QD) | Alkaline Phosphatase (increased): Subjects with Grade 2 (100 mg QD) | Alkaline Phosphatase (increased): Subjects with Grade 3 (100 mg QD) | Alkaline Phosphatase (increased): Subjects with Grade 4 (100 mg QD) | Aspartate Aminotransferase (increased): Subjects with Grade 3 (100 mg QD) | Aspartate Aminotransferase (increased): Subjects with Grade 4 (100 mg QD) | Calcium corrected (decreased): Subjects with Grade 2 (100 mg QD) | Calcium corrected (decreased): Subjects with Grade 3 (100 mg QD) | Calcium corrected (decreased): Subjects with Grade 4 (100 mg QD) | Calcium corrected (increased): Subjects with Grade 2 (100 mg QD) | Calcium corrected (increased): Subjects with Grade 3 (100 mg QD) | Calcium corrected (increased): Subjects with Grade 4 (100 mg QD) | Cholesterol (increased): Subjects with Grade 1 (100 mg QD) | Cholesterol (increased): Subjects with Grade 3 (100 mg QD) | Cholesterol (increased): Subjects with Grade 4 (100 mg QD) | Creatine Kinase (increased): Subjects with Grade 2 (100 mg QD) | Creatine Kinase (increased): Subjects with Grade 3 (100 mg QD) | Creatinine (increased): Subjects with Grade 2 (100 mg QD) | Creatinine (increased): Subjects with Grade 3 (100 mg QD) | Creatinine (increased): Subjects with Grade 4 (100 mg QD) | Gamma Glutamyl Transferase (increased): Subjects with Grade 2 (100 mg QD) | Gamma Glutamyl Transferase (increased): Subjects with Grade 3 (100 mg QD) | Gamma Glutamyl Transferase (increased): Subjects with Grade 4 (100 mg QD) | Glucose (decreased): Subjects with Grade 3 (100 mg QD) | Glucose (decreased): Subjects with Grade 4 (100 mg QD) | Hemoglobin (g/L) (decreased): subjects with Grade 2 (100 mg QD) | Hemoglobin (g/L) (decreased): subjects with Grade 3 (100 mg QD) | Hemoglobin (g/L) (decreased): subjects with Grade 4 (100 mg QD) | Hemoglobin (g/L) (increased): subjects with Grade 1 (100 mg QD) | Hemoglobin (g/L) (increased): subjects with Grade 2 (100 mg QD) | Hemoglobin (g/L) (increased): subjects with Grade 3 (100 mg QD) | Hemoglobin (g/L) (increased): subjects with Grade 4 (100 mg QD) | Hemoglobin (g/L) (increased): subjects with postbaseline maximum toxicity grade >0 (100 mg QD) | Lymphocytes (×10^9/L) (decreased): subjects with Grade 3 (100 mg QD) | Lymphocytes (×10^9/L) (decreased): subjects with Grade 4 (100 mg QD) | Lymphocytes (×10^9/L) (increased): subjects with Grade 1 (100 mg QD) | Lymphocytes (×10^9/L) (increased): subjects with Grade 3 (100 mg QD) | Lymphocytes (×10^9/L) (increased): subjects with Grade 4 (100 mg QD) | Magnesium (decreased): Subjects with Grade 2 (100 mg QD) | Magnesium (decreased): Subjects with Grade 3 (100 mg QD) | Magnesium (decreased): Subjects with Grade 4 (100 mg QD) | Magnesium (increased): Subjects with Grade 2 (100 mg QD) | Magnesium (increased): Subjects with Grade 3 (100 mg QD) | Magnesium (increased): Subjects with Grade 4 (100 mg QD) | Neutrophils (×10^9/L) (decreased): subjects with Grade 3 (100 mg QD) | Neutrophils (×10^9/L) (decreased): subjects with Grade 4 (100 mg QD) | Platelets (×10^9/L) (decreased): subjects with Grade 2 (100 mg QD) | Platelets (×10^9/L) (decreased): subjects with Grade 3 (100 mg QD) | Platelets (×10^9/L) (decreased): subjects with Grade 4 (100 mg QD) | Potassium (decreased): Subjects with Grade 1 (100 mg QD) | Potassium (decreased): Subjects with Grade 3 (100 mg QD) | Potassium (decreased): Subjects with Grade 4 (100 mg QD) | Potassium (increased): Subjects with Grade 1 (100 mg QD) | Potassium (increased): Subjects with Grade 3 (100 mg QD) | Potassium (increased): Subjects with Grade 4 (100 mg QD) | Sodium (decreased): Subjects with Grade 1 (100 mg QD) | Sodium (decreased): Subjects with Grade 2 (100 mg QD) | Sodium (decreased): Subjects with Grade 3 (100 mg QD) | Sodium (decreased): Subjects with Grade 4 (100 mg QD) | Sodium (decreased): Subjects with postbaseline maximum toxicity grade >0 (100 mg QD) | Sodium (increased): Subjects with Grade 2 (100 mg QD) | Sodium (increased): Subjects with Grade 3 (100 mg QD) | Sodium (increased): Subjects with Grade 4 (100 mg QD) | Total Bilirubin (increased): Subjects with Grade 2 (100 mg QD) | Total Bilirubin (increased): Subjects with Grade 3 (100 mg QD) | Total Bilirubin (increased): Subjects with Grade 4 (100 mg QD) | Triglycerides (increased): Subjects with Grade 3 (100 mg QD) | Triglycerides (increased): Subjects with Grade 4 (100 mg QD) | WBC (×10^9/L) (decreased): subjects with Grade 3 (100 mg QD) | WBC (×10^9/L) (decreased): subjects with Grade 4 (100 mg QD) | WBC (×10^9/L) (increased): subjects with Grade 1 (100 mg QD)
